pIC50: −log10 of the molar value. Structures can show the parent of a compound that is named as a salt.

One data set deals with rat's blood. Nature of the data set: Anticoagulant activity (blood coagulation time by thrombelastograph). The settings on record: compound 1×10^-4 M, thrombelastogram. As for the experimental part: A compound to be tested was dissolved into a physiological saline solution so as to have the final concentration of 1×10^-4 M and then cooled down by ice. A 0.05 ml of the thus prepared solution was added with 0.5 ml of rat's blood, followed by subjecting the obtained solution to a thrombelastograph (manufactured by Hellige Company). The blood coagulation time (r+k value) was determined by the obtained thrombelastogram.

The next data set concerns the target T1, trypsin (Bos taurus, UniProt P00760).
T1 sequence (P00760 24-246): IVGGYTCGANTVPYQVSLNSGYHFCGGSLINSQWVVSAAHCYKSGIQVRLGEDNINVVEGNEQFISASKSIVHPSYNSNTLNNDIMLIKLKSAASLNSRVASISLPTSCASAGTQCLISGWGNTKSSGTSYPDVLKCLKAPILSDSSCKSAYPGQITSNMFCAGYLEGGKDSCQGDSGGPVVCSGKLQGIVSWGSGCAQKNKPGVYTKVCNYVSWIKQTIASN
Nature of the data set: Trypsin inhibitory activity. It is filed as biochemical. The note with it: pH 8.0, 37° C., substrate Boc-Phe-Ser-Arg-MCA; read-out: Concentration for 50% inhibition, trypsin. How it is done:
To 0.1 ml of a dimethylsulfoxide solution of a compound to be tested were added 0.3 ml of a 0.1M trishydrochloric acid buffer solution (pH 8.0) containing 10 mM of calcium chloride and 0.1 ml of a solution of 50 ng/ml of trypsin dissolved in the buffer solution, followed by incubation at 37° C. and 10 minutes. Thereafter, 5 microliters of a dimethylformamide solution of 10 mM Boc-Phe-Ser-Arg-MCA, followed by reaction at 37° C. for 30 minutes and addition of 0.5 ml of a 10% acetic acid solution to stop the reaction. The fluorecence of produced 7-amino-4-methylcumarin was measured by the use of a fluorometer (Fluorometer 650-40, by Hitachi Ltd.) under conditions of an excitation wavelength of 380 nm, a wavelength of the fluorescence of 460 nm and a slit width of 2 mm.
The inhibition rate of the respective compounds to be tested was calculated according to the following equation. [formula] in which T represents a measured value of "test specimen+enzyme+substrate", E represents a measured value of "enzyme+substrate", and S represents a measured value of "substrate".

Another data set in a line: Solubility. In kind it is physicochemical. The settings on record: pH 3.57.
The target in the next data set is thrombin (Homo sapiens, UniProt P00734). Nature of the data set: Thrombin inhibitory activity. The settings on record: pH 7.4, 37° C., substrate Boc-Val-Pro-Arg-MCA; read-out: Concentration for 50% inhibition, thrombin. It is filed as biochemical. How it is done: To 0.1 ml of a dimethylsulfoxide solution of each of compounds to be tested were added 0.3 ml of a 0.1M phosphate buffer solution (pH 7.4) and 0.1 ml of a thrombin solution containing 100 mu/ml of thrombin in the buffer solution, followed by incubation at 37° C. for 10 minutes. To the solution was added […] of dimethylformamide solution of 10 mM Boc-Val-Pro-Arg-MCA for reaction at 37° C. for 30 minutes. Thereafter, the inhibition rate was calculated similar to the case of trypsin.

Data set [1] in a line: Acute toxicity (LD50), intravenous administration to mice. The note with it: mouse, in vivo.

As usually defined, the solubility is the dissolved amount per volume that the medium holds. For orientation: LD50 means the dose at which mortality reaches 50%. `N=C(N)Nc1ccc(C(=O)Oc2ccc(C(=O)N3CCN(CC(N)=O)CC3)cc2)cc1` [Example 2, 4-[4-(carbamoylmethyl)piperazinocarbonyl]phenyl 4-guanidinobenzoate.dihydrochloride]: the “Blood coagulation time (r+k value)” value in the data set on rat's blood was found to be 26.7 ± 3.3 min. Moreover, the values for the pIC50 on trypsin and at thrombin were 7.70 and 6.70, respectively. The compound also gave a solubility in “Solubility” of more than 100 mg/mL. In addition, the LD50 in data set [1] is 150 to 200 mg/kg.
For `N=C(N)Nc1ccc(C(=O)Oc2ccc(C(=O)N3CCN(CC(=O)N4CCOCC4)CC3)cc2)cc1` [Example 6, 4-[4-(Morpholynocarbonylmethyl)piperazinocarbonyl]phenyl 4-guanidinobenzoate.dihydrochloride], the “Blood coagulation time (r+k value)” value in the data set on rat's blood came to 15.3 ± 3.1 min. For the same compound, the values for the pIC50 at trypsin and at thrombin were 8.22 and 6.40, respectively. The LD50 in data set [1] was in the range of 150 to 200 mg/kg.
As to `N=C(N)Nc1ccc(C(=O)Oc2ccc(C(=O)N3CCN(CC(=O)N4CCCC4)CC3)cc2)cc1` [Example 7, 4-[4-(Pyrrolidinocarbonylmethyl)piperazino-carbonyl]phenyl 4-guanidinobenzoate.dihydrochloride], the “Blood coagulation time (r+k value)” value with rat's blood was found to be 9.7 ± 0.3 min. For the same compound, the pIC50 was 8.15 on trypsin and 6.40 at thrombin. This compound yielded a 50% lethal dose (LD50) in data set [1] of 100 to 150 mg/kg.
The like results for `CC(C)NC(=O)CN1CCN(C(=O)c2ccc(OC(=O)c3ccc(NC(=N)N)cc3)cc2)CC1` [Example 9, 4-[4-(Isopropylcarbamoylmethyl)piperazinocarbonyl]phenyl 4-guanidinobenzoate.dihydrochloride] were, in that order, 18.5 min, 8.00, 6.40 and 150 to 200 mg/kg.
For `CCOC(=O)CN1CCN(C(=O)c2ccc(OC(=O)c3ccc(NC(=N)N)cc3)cc2)CC1` [Example 10, 4-[4-(Ethoxycarbonylmethyl)piperazinocarbonyl]phenyl 4-guanidinobenzoate.dihydrochloride], in the data set with rat's blood, the “Blood coagulation time (r+k value)” value stood at 10 min. For the same compound, the pIC50 on trypsin was 7.70; at thrombin it was 6.40. Also, the LD50 in data set [1] lay within 150 to 200 mg/kg.
For `COc1cc(C(=O)N2CCN(C(C)C)CC2)cc(OC)c1OC(=O)c1ccc(NC(=N)N)cc1` [Example 11, 4-(4-Isopropylpiperazinocarbonyl)-3,5-dimethoxyphenyl 4-gunanidinobenzoate.dihydrochloride], the pIC50 on trypsin was 6.40. Besides, the 50% lethal dose (LD50) in data set [1] was in the range of 50 to 100 mg/kg.
As to `N=C(N)Nc1ccc(C(=O)Oc2ccc(C(=O)N3CCN(CC(=O)N4CCCCC4)CC3)cc2)cc1` [Example 12, 4-[4-(Piperidinocarbonylmethyl)piperazinocarbonyl]phenyl 4-guanidinobenzoate.dihydrochloride], the “Blood coagulation time (r+k value)” value with rat's blood was 14.5 min. Besides, the pIC50 at trypsin was 8.00. Moreover, the median lethal dose (LD50) in data set [1] lay within 100 to 150 mg/kg.
The like results for `CC(C)N1CCN(C(=O)c2ccc(OC(=O)c3ccc(NC(=N)N)cc3)cc2)CC1` [Example 13, 4-(4-Isopropylpiperazinocarbonyl)phenyl 4-guanidinobenzoate.dihydrochloride] were, in that order, 21 ± 3.9 min, 7.70 and 50 to 100 mg/kg.
With `CC(C(=O)NCCN(C)C)N1CCN(C(=O)c2ccc(OC(=O)c3ccc(NC(=N)N)cc3)cc2)CC1` (centres unmarked) [Example 22, 4-[4-[1-(2-Dimethylaminoethylcarbamoyl)ethyl]piperazinocarbonyl]phenyl 4-guanidinobenzoate.trihydrochloride], in the data set on rat's blood, the “Blood coagulation time (r+k value)” value stood at 20.5 ± 0.8 min. In addition, the pIC50 on trypsin was 7.40.
Take `N=C(N)Nc1ccc(C(=O)Oc2ccc(C(=O)N3CCN(CCNC(=O)OCc4ccccc4)CC3)cc2)cc1` [Example 25, 4-[4-(2-Benzyloxycarbonylaminoethyl)piperazinocarbonyl]phenyl 4-guanidinobenzoate.dihydrochloride]: the “Blood coagulation time (r+k value)” value with rat's blood is 18.8 ± 1.2 min. The pIC50 at trypsin is 7.70.
On the same counts, the results for `N=C(N)Nc1ccc(C(=O)Oc2ccc(C(=O)N3CCN(CC(=O)O)CC3)cc2)cc1` [Example 27, 4-[4-(Guanidinobenzoyloxy)benzoyl]piperazino-acetic acid:dihydrochloride] are 19.2 ± 2.3 min and 7.40.
Take `N=C(N)Nc1ccc(C(=O)Oc2ccc(C(=O)N3CCNCC3)cc2)cc1` [Example 29, 4-Piperazinocarbonylphenyl 4-guanidinobenzoate.dihydrochloride]: in the data set with rat's blood, the “Blood coagulation time (r+k value)” value was 34.8 ± 5.5 min. Moreover, the pIC50 on trypsin was 7.52.
In the case of `CN1CCN(C(=O)c2ccc(OC(=O)c3ccc(NC(=N)N)cc3)cc2)CC1` [Example 30, 4-(4-Methylpiperazinocarbonyl)phenyl 4-guanidinobenzoate.dihydrochloride], the “Blood coagulation time (r+k value)” value with rat's blood is 16.5 ± 1.6 min. Moreover, the pIC50 at trypsin is 7.52.
On the same counts, the results for `N=C(N)Nc1ccc(C(=O)Oc2ccc(C(=O)N3CCCN(CC(N)=O)CC3)cc2)cc1` [Example 33, 4-(4-Carbamoylmethylhomopiperazinocarbonyl)phenyl 4-guanidinobenzoate.dihydrochloride] are 32 ± 2.5 min and 7.70.
On the same counts, the results for `CN(C)CCNC(=O)c1ccc(OC(=O)c2ccc(NC(=N)N)cc2)cc1` [Example 34, 4-(N,N-Dimethylethylenediaminocarbonyl)phenyl 4-guanidinobenzoate.dihydrochloride] are 41.3 ± 3.9 min and 8.00.
The like results for `CN(C)CCN(C)C(=O)c1ccc(OC(=O)c2ccc(NC(=N)N)cc2)cc1` [Example 37, 4-(N,N,N'-Trimethylethylenediaminocarbonyl)phenyl 4-guanidinobenzoate.dihydrochloride] were, in that order, 46.5 ± 4.5 min and 7.40.
In the case of `CN(CCN(C)C(=O)c1ccc(OC(=O)c2ccc(NC(=N)N)cc2)cc1)CC(N)=O` [Example 38, 4-[(N-Carbamoylmethyl-N,N'-dimethylethylenediamino)carbonyl]phenyl 4-guanidinobenzoate.dihydrochloride], in the data set with rat's blood, the “Blood coagulation time (r+k value)” value is 34.2 ± 1.6 min. On trypsin, the pIC50 is 7.52.
Turning to `CN(C)C(=O)COC(=O)Cc1ccc(OC(=O)c2ccc(NC(=N)N)cc2)cc1` [Reference compound A, reference compound], the “Blood coagulation time (r+k value)” value in the data set with rat's blood was found to be 9.8 ± 0.6 min. On trypsin, the pIC50 was 7.30. The compound further had an LD50 in data set [1] of 280 mg/kg.
Take `CCOC(=O)c1ccc(OC(=O)CCCCCNC(=N)N)cc1` [Reference compound B, reference compound]: the “Blood coagulation time (r+k value)” value in the data set on rat's blood came out at 9.8 ± 1.6 min. Further, the pIC50 on trypsin was 6.40. The LD50 in data set [1] is 313 mg/kg.

Values taken from US4746737A, “Phenyl guanidinobenzoate derivatives which have protease inhibitory activity” (Kowa Co., Ltd., priority 1985, dated 1988).
